According to PubChem BioAssay AID1963979 (Molecular Pharmacology Branch, DTP, NCI, 2024):

System: 361931-004-R-J1-PDC multicell spheroid viability
Assay: Anticancer human tumor 361931-004-R-J1-PDC patient-derived colon adenocarcinoma cell line growth inhibition [PI3K]
Settings: for IC50: curve of first compound; for viability, T/C: stronger effect = lower value; active means viability on the fitted dose curve at most 10% of control; inactive means the rest
From the text: Combinatorial screen of targeted agents with the PI3K inhibitors inavolisib, alpelisib, duvelisib, and copanlisib in multi-cell type tumor spheroids
A high-throughput screen of multi-cell type tumor spheroids was designed to identify active combinations of targeted small molecules and PI3K pathway inhibitors. Complex spheroids include a stromal component modeled by human endothelial cells (HUVEC) and fibroblasts modeled by human mesenchymal stem cells (MSCs). The concentration ranges selected for each drug and investigational agent were based upon clinically achievable concentrations if the clinical Cmax of the agent was known.
Compounds. The drugs and investigational agents: inavolisib (NSC800729), alpelisib (NSC765974), duvelisib (NSC772469), copanlisib (NSC816437), ipatasertib (NSC767898), afuresertib (NSC778305), talazoparib (NSC767125), sapanisertib (NSC764658), selumetinib (NSC741078), tovorafenib (DAY101, NSC766906), vemurafenib (NSC761431), ravoxertinib (NSC781343), sotorasib (NSC818433), MRTX1133 (NSC 836407), abemaciclib (NSC 768073), palbociclib (NSC758247), venetoclax (NSC 766270), SY5609 (NSC837396), enzalutamide (NSC755605), and darolutamide (NSC825331), were obtained from the National Cancer Institute (NCI) Developmental Therapeutics Program Chemical Repository. The FDA-approved anticancer drug set is available from the NCI Developmental Therapeutics Program. […] The stock solutions were prepared in dimethyl sulfoxide (DMSO, Sigma-Aldrich, St. Louis, MO, cat. D2650) at 800-fold the tested concentration and stored at -70 degrees C prior to their use. All drugs and investigational agents were tested over a range starting from a high concentration at or near the clinical Cmax and decreasing in half-log increments. If the clinical Cmax for an agent had not been determined, the highest concentration tested was 10 microM.
Cell Culture. All cells were maintained in an incubator at 37 degrees C and 5% CO2 with 95% humidity. The PDC lines were cultured according to standard operating procedures established by the NCI PDMR (https://pdmr.cancer.gov/sops/default.htm). All PDCs were thawed and cultured in Matrigel-coated flasks prepared with a working solution of 1X Ham's F-12 nutrient mix, without supplementation (Invitrogen, Waltham, MA, cat. 11765054), 100 U/mL penicillin-streptomycin (Invitrogen, cat. 15140122), and 2.5% Matrigel (Corning Inc., Corning, NY, cat. 354248) for the first three passages. The 354836-022-R-J1-PDC, 475296-252-R-J1-PDC, and 997726-040-R-J2-PDC lines were cultured in 6A media, which includes advanced DMEM/F-12 (Thermo Fisher Scientific, cat. 12634028), 10 mM HEPES (Thermo Fisher Scientific, cat. 15630080), 1X GlutaMAX supplement (Thermo Fisher Scientific, cat. 35050061), 0.1 mg/mL primocin (InvivoGen, San Diego, CA, cat. ant-pm-2), 10% defined fetal bovine serum, heat inactivated (HyClone Laboratories Inc., Logan, UT, cat. SH30070.03HI), 50% L-WRN conditioned media (ATCC, cat. CRL-3276), 1.25 mM N-Acetyl-L-cysteine (Sigma-Aldrich, cat. A9165), 10 mM nicotinamide (Sigma-Aldrich, cat. N0636), 1X B-27 supplement (Thermo Fisher Scientific, cat. 17504044), 1X N-2 supplement (Thermo Fisher Scientific, cat. 17502048), and 10 microM Y-27632 dihydrochloride (Tocris Bioscience, Bristol, United Kingdom, cat. 1254). The 624824-186-R-J2-PDC line was cultured in 6C/Colon 1B media, which includes all 6A media components plus 50 ng/mL human EGF recombinant protein (Thermo Fisher Scientific, cat. PHG0311). […]

[1] = second compound 0.00316 µM, first compound 0.0316 µM
[2] = second compound 0.00316 µM, first compound 0.1 µM
[3] = second compound 0.00316 µM, first compound 0.316 µM
[4] = second compound 0.00316 µM, first compound 1 µM
[5] = second compound 0.00316 µM, first compound 3.16 µM
[6] = second compound 0.00316 µM, first compound 10 µM
[7] = second compound 0.01 µM, first compound 0.0316 µM
[8] = second compound 0.01 µM, first compound 0.1 µM
[9] = second compound 0.01 µM, first compound 0.316 µM
[10] = second compound 0.01 µM, first compound 1 µM
[11] = second compound 0.01 µM, first compound 3.16 µM
[12] = second compound 0.01 µM, first compound 10 µM
[13] = second compound 0.0316 µM, first compound 0.0316 µM
[14] = second compound 0.0316 µM, first compound 0.1 µM
[15] = second compound 0.0316 µM, first compound 0.316 µM
[16] = second compound 0.0316 µM, first compound 1 µM
[17] = second compound 0.0316 µM, first compound 3.16 µM
[18] = second compound 0.0316 µM, first compound 10 µM
[19] = second compound 0.1 µM, first compound 0.0316 µM
[20] = second compound 0.1 µM, first compound 0.1 µM
[21] = second compound 0.1 µM, first compound 0.316 µM
[22] = second compound 0.1 µM, first compound 1 µM
[23] = second compound 0.1 µM, first compound 3.16 µM
[24] = second compound 0.1 µM, first compound 10 µM
[25] = second compound 0.316 µM, first compound 0.0316 µM
[26] = second compound 0.316 µM, first compound 0.1 µM
[27] = second compound 0.316 µM, first compound 0.316 µM
[28] = second compound 0.316 µM, first compound 1 µM
[29] = second compound 0.316 µM, first compound 3.16 µM
[30] = second compound 0.316 µM, first compound 10 µM
[31] = second compound 1 µM, first compound 0.0316 µM
[32] = second compound 1 µM, first compound 0.1 µM
[33] = second compound 1 µM, first compound 0.316 µM
[34] = second compound 1 µM, first compound 1 µM
[35] = second compound 1 µM, first compound 3.16 µM
[36] = second compound 1 µM, first compound 10 µM
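Further: spheroids exposed to agents for seven days before readout.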

CC(C)NCC(C(=O)N1CCN(c2ncnc3c2C(C)CC3O)CC1)c1ccc(Cl)cc1 (stereo unspecified) + CC(Nc1ccc2c(c1)OCCn1cc(N3C(=O)OCC3C(F)F)nc1-2)C(N)=O
inactive: viability, T/C [1] 93.3% | viability, T/C [2] 99% | viability, T/C [3] 78.1% | viability, T/C [4] 55.2% | viability, T/C [5] 31.6% | viability, T/C [6] 18.9% | viability, T/C [7] 105% | viability, T/C [8] 92.9% | viability, T/C [9] 75.9% | viability, T/C [10] 55.3% | viability, T/C [11] 31.8% | viability, T/C [12] 19.9% | viability, T/C [13] 97.9% | viability, T/C [14] 96.6% | viability, T/C [15] 76% | viability, T/C [16] 46.4% | viability, T/C [17] 30.2% | viability, T/C [18] 18.8% | viability, T/C [19] 101% | viability, T/C [20] 95% | viability, T/C [21] 71.2% | viability, T/C [22] 50.9% | viability, T/C [23] 41.8% | viability, T/C [24] 18.3% | viability, T/C [25] 90.5% | viability, T/C [26] 77.4% | viability, T/C [27] 74% | viability, T/C [28] 51.2% | viability, T/C [29] 28.6% | viability, T/C [30] 20.7% | viability, T/C [31] 72.3% | viability, T/C [32] 71.1% | viability, T/C [33] 68.9% | viability, T/C [34] 51.7% | viability, T/C [35] 25.3% | viability, T/C [36] 15.3%
1240 nM: IC50 (second compound 0.01 µM)
1360 nM: IC50 (second compound 0.1 µM)
1040 nM: IC50 (second compound 0.316 µM)
1090 nM: IC50 (second compound 1 µM)
906 nM: IC50 (second compound 0.0316 µM)
1270 nM: IC50 (second compound 0.00316 µM)

CCN1CCN(Cc2ccc(Nc3ncc(F)c(-c4cc(F)c5nc(C)n(C(C)C)c5c4)n3)nc2)CC1 + CC(Nc1ccc2c(c1)OCCn1cc(N3C(=O)OCC3C(F)F)nc1-2)C(N)=O
> 1000 nM: IC50 (second compound 0.00316 µM) | IC50 (second compound 0.01 µM) | IC50 (second compound 0.0316 µM)
142 nM: IC50 (second compound 0.316 µM)
inactive: viability, T/C (second compound 0.00316 µM, first compound 0.00316 µM) 96.2% | viability, T/C (second compound 0.00316 µM, first compound 0.01 µM) 100% | viability, T/C [1] 91.2% | viability, T/C [2] 86.9% | viability, T/C [3] 86.2% | viability, T/C [4] 64.3% | viability, T/C (second compound 0.01 µM, first compound 0.00316 µM) 104% | viability, T/C (second compound 0.01 µM, first compound 0.01 µM) 99.1% | viability, T/C [7] 77.5% | viability, T/C [8] 81.4% | viability, T/C [9] 86.1% | viability, T/C [10] 56.7% | viability, T/C (second compound 0.0316 µM, first compound 0.00316 µM) 91.4% | viability, T/C (second compound 0.0316 µM, first compound 0.01 µM) 98.2% | viability, T/C [13] 76.2% | viability, T/C [14] 80% | viability, T/C [15] 68% | viability, T/C [16] 55.4% | viability, T/C (second compound 0.1 µM, first compound 0.00316 µM) 90% | viability, T/C (second compound 0.1 µM, first compound 0.01 µM) 87.6% | viability, T/C [19] 71.7% | viability, T/C [20] 63.4% | viability, T/C [21] 67.2% | viability, T/C [22] 36.4% | viability, T/C (second compound 0.316 µM, first compound 0.00316 µM) 75.7% | viability, T/C (second compound 0.316 µM, first compound 0.01 µM) 86.4% | viability, T/C [25] 62.8% | viability, T/C [26] 55% | viability, T/C [27] 42.5% | viability, T/C [28] 33.1% | viability, T/C (second compound 1 µM, first compound 0.00316 µM) 75.4% | viability, T/C (second compound 1 µM, first compound 0.01 µM) 75.1% | viability, T/C [31] 54.4% | viability, T/C [32] 56.1% | viability, T/C [33] 45% | viability, T/C [34] 32.2%
504 nM: IC50 (second compound 0.1 µM)
146 nM: IC50 (second compound 1 µM)

Cn1ncc(Cl)c1-c1cc(C(=O)NC(CN)Cc2cccc(F)c2)sc1Cl (stereo unspecified) + CC(Nc1ccc2c(c1)OCCn1cc(N3C(=O)OCC3C(F)F)nc1-2)C(N)=O
1090 nM: IC50 (second compound 0.00316 µM)
654 nM: IC50 (second compound 1 µM)
730 nM: IC50 (second compound 0.1 µM)
inactive: viability, T/C [1] 92.5% | viability, T/C [2] 91.9% | viability, T/C [3] 76.6% | viability, T/C [4] 50.9% | viability, T/C [5] 32.2% | viability, T/C [6] 22.6% | viability, T/C [7] 99% | viability, T/C [8] 94.5% | viability, T/C [9] 68.7% | viability, T/C [10] 48.4% | viability, T/C [11] 29% | viability, T/C [12] 15.4% | viability, T/C [13] 103% | viability, T/C [14] 110% | viability, T/C [15] 75.2% | viability, T/C [16] 37.3% | viability, T/C [17] 25.8% | viability, T/C [18] 12.8% | viability, T/C [19] 85% | viability, T/C [20] 87.7% | viability, T/C [21] 67% | viability, T/C [22] 41.6% | viability, T/C [23] 26.1% | viability, T/C [24] 12.8% | viability, T/C [25] 90.1% | viability, T/C [26] 77.9% | viability, T/C [27] 68.8% | viability, T/C [28] 54.2% | viability, T/C [29] 22.4% | viability, T/C [30] 14.6% | viability, T/C [31] 82.6% | viability, T/C [32] 79.4% | viability, T/C [33] 59.5% | viability, T/C [34] 45.1% | viability, T/C [35] 24% | viability, T/C [36] 16.1%
965 nM: IC50 (second compound 0.316 µM)
695 nM: IC50 (second compound 0.0316 µM)
900 nM: IC50 (second compound 0.01 µM)
